Data: patent publication US20130281512A1, “AGENTS FOR TREATING DISORDERS INVOLVING MODULATION OF RYANODINE RECEPTORS” (LES LABORATOIRES SERVIER, priority 2012, published 2013)

Columns and labels:
PKA-phosphorylated RyR2 = molecular target: T1, PKA-phosphorylated RyR2 (Homo sapiens, UniProt Q92736); test: Calstabin2 rebinding assay: binding of calstabin2 to PKA-phosphorylated RyR2 (cardiac SR, immunoblot); conditions: 100 nM compound; immunoblot with calstabin2 antibody
T1 construct: Cardiac SR membranes were prepared as previously described; from tissue; host or cells: cardiac sarcoplasmic reticulum (heart muscle microsomes)
T1 sequence (Q92736 whole entry): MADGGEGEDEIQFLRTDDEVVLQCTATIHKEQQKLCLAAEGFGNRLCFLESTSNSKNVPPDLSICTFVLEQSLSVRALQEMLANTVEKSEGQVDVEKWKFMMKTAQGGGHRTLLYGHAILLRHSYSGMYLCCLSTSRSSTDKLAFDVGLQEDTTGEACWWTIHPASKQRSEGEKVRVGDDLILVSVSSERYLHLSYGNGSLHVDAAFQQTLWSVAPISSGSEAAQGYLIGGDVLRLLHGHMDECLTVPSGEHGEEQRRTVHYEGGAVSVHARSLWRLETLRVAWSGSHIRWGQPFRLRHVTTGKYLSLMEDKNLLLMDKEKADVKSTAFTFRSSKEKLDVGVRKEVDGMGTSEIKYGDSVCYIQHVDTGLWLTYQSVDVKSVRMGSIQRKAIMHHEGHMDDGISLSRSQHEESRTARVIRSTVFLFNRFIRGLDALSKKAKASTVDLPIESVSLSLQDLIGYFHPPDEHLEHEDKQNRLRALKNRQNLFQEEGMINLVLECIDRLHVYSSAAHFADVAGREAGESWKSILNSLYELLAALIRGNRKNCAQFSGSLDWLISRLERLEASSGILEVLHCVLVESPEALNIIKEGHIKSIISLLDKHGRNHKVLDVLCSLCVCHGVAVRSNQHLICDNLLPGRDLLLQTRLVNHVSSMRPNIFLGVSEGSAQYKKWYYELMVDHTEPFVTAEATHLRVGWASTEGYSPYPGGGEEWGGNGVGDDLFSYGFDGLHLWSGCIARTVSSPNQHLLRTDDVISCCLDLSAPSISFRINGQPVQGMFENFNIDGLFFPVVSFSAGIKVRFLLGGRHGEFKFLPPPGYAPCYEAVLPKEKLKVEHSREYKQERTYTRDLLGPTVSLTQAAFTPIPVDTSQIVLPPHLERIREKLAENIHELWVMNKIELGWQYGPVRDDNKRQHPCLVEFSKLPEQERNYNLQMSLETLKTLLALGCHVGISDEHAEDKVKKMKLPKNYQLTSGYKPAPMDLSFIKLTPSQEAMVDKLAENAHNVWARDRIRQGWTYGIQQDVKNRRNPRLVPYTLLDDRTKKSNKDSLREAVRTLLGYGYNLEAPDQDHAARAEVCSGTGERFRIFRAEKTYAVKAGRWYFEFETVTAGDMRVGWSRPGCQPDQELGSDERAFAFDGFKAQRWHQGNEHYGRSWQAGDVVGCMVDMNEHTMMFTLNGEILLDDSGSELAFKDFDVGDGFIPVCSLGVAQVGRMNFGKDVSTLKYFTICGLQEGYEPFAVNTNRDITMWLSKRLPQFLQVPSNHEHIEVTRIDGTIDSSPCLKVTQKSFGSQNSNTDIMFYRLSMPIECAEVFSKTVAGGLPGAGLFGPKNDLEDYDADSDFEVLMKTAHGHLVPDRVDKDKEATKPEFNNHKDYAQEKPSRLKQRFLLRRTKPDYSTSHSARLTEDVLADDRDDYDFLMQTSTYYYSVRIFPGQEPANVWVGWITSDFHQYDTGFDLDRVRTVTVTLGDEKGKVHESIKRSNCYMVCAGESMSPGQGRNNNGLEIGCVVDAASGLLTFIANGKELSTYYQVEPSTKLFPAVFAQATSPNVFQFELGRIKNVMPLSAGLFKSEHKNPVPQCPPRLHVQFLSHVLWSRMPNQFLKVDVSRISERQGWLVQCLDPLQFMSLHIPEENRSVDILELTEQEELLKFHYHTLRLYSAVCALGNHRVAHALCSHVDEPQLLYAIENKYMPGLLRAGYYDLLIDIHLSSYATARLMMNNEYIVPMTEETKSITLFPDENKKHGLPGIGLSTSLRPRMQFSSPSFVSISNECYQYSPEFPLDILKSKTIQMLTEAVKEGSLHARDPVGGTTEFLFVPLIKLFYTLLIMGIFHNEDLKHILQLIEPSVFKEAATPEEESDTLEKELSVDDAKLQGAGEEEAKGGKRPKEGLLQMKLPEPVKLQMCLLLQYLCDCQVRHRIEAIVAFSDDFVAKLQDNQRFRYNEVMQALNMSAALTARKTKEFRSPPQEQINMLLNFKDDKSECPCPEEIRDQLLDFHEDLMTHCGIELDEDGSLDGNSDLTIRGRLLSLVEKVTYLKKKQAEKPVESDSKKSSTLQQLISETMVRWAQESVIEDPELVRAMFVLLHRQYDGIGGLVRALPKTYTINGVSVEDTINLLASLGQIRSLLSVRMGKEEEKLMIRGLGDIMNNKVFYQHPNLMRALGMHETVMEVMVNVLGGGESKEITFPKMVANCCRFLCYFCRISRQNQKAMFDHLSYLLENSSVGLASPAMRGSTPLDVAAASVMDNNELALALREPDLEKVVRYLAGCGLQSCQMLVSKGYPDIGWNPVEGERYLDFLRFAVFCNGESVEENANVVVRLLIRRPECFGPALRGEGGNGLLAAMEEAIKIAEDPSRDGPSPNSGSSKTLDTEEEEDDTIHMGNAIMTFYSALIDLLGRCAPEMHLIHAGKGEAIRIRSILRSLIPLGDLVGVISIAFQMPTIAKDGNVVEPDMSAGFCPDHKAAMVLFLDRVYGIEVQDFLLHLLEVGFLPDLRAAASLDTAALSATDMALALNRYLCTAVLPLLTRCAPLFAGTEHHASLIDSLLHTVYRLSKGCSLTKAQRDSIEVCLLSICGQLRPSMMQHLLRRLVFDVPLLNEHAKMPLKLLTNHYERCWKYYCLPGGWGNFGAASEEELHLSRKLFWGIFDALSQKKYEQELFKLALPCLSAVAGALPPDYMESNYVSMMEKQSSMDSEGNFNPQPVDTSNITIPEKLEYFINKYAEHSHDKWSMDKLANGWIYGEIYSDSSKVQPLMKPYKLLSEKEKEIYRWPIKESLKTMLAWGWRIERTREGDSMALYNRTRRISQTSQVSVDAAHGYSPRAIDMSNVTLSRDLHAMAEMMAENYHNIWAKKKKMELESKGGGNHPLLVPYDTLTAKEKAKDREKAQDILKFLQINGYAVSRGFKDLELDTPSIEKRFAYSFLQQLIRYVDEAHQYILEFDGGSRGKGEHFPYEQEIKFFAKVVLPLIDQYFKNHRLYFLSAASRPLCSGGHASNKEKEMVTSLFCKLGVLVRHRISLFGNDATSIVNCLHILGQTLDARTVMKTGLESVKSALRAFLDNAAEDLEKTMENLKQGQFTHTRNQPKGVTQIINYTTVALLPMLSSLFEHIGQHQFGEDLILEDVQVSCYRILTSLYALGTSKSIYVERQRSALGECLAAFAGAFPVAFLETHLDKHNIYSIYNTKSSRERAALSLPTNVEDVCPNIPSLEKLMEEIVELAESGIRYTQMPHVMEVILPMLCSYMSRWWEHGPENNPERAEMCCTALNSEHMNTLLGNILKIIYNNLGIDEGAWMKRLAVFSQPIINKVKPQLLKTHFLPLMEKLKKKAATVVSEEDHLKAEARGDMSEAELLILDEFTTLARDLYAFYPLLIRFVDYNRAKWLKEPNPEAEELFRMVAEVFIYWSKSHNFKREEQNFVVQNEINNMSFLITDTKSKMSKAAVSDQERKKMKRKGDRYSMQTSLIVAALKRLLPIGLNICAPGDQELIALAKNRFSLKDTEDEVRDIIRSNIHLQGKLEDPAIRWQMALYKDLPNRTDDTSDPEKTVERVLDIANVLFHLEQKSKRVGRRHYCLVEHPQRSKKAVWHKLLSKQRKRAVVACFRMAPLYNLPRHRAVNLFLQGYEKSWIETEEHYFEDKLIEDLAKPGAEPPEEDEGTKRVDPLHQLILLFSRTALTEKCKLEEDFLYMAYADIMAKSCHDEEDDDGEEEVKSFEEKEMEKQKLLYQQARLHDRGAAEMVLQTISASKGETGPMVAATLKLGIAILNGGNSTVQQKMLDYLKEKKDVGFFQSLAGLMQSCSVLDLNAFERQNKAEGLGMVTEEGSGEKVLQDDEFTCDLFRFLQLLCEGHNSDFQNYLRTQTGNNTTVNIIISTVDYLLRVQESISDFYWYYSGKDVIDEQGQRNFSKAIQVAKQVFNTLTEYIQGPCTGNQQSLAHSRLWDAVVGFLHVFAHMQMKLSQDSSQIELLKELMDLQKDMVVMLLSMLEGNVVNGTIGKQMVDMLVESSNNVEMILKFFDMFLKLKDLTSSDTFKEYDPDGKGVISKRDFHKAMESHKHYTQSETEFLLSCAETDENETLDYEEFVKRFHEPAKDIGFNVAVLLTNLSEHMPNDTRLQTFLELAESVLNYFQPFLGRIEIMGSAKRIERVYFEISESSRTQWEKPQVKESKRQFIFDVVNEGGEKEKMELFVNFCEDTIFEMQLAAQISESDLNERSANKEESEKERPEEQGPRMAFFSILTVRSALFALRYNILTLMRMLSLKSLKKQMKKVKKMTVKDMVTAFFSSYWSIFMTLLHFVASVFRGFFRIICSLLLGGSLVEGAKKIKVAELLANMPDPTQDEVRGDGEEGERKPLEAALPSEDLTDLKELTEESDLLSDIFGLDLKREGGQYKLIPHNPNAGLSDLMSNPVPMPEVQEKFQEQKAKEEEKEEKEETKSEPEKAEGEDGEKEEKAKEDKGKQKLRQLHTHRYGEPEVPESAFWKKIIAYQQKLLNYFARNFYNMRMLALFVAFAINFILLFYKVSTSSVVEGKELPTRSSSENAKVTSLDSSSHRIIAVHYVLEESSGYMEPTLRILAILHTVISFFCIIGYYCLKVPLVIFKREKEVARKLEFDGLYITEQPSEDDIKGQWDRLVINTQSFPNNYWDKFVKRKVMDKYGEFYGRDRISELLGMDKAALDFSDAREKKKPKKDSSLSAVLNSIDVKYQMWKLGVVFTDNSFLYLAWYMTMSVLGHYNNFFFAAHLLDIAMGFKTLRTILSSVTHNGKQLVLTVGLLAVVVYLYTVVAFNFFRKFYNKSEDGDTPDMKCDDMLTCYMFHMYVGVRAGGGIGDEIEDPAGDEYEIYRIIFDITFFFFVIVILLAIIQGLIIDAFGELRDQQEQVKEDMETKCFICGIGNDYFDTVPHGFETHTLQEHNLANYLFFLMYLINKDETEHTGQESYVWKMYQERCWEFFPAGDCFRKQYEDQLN
T1 sequence (P68106 whole entry partner): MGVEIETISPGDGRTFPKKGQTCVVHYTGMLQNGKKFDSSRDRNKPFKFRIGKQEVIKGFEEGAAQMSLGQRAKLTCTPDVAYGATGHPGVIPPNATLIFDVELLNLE
Experimental: Cardiac SR membranes were prepared as previously described (Marx et al., 2000; Kaftan et al., Circ. Res., 1996, 78:990-97). Immunoblotting of microsomes (50 μg) was performed as described, with anti-calstabin antibody (1:1,000) (Jayaraman et al., J. Biol. Chem., 1992, 267:9474-77) for 1 hr at room temperature (Reiken et al., Circulation, 107:2459-66, 2003). After incubation with HRP-labeled anti-rabbit IgG (1:5,000 dilution; Transduction Laboratories, Lexington, Ky.), the blots were developed using ECL (Amersham Pharmacia, Piscataway, N.J.) and detected on x-ray film, or exposed to secondary antibodies labeled with infrared Dye and visualized on equipment from Li-Cor Biosciences (model Odyssey). Unless otherwise stated, compounds were tested at a concentration of 100 nM. A representative calstabin2 binding assay is presented below.
A. PKA phosphorylation of cardiac sarcoplasmic reticulum (CSR)
B. Reaction mixture was set up in 1.5 ml microfuge tube. 200 μg of cardiac SR were added to a reaction mix of kinase buffer, PKA and ATP to a final volume of 100 (Reaction mix below). ATP was added last to initiate the reaction.
20 μl Sample (cardiac SR, 2 or 10 μg/μl) 10 μl=10× Kinase buffer (80 mM MgCl2, 100 mM EGTA, 500 mM Tris/PIPES), pH=7.0
20 μl PKA (2units/ul) (Sigma # P2645)
40 μl=distilled H2O • 1. The tubes were incubated at 30° C. for 30 minutes. • 2. The reaction mix was then transferred to 0.5 ml thick walled glass tubes. • 3. The glass tubes containing the reaction mix were centrifuged for 10 min at 50,000×g in Sorvall Centrifuge RCM120EX using S120AT3 rotor. Centrifugation at 50,000×g for 10 min is sufficient to isolate the microsomes. • 4. The resulting pellet was washed 4 times with binding buffer (10 mM Imidazol 300 mM Sucrose, pH=7.4). Each time 100111 of 1× binding buffer was added to the tube to wash the pellet. The pellet was resuspended by flushing up and down using the pipette tip. After the last spin 501.11 of binding buffer was added and the pellets from all tubes were pooled. The reaction was stored at −20° C. • 5. Phosphorylation was confirmed by separating approximately 10 μg of CSR by 6% Polyacylamide gel electrophoresis (PAGE) and analyzing the immunoblots for both total RyR (5029 Ab, 1:3000 dilution or Monoclonal Ab from Affinity Bioreagents, Cat # MA3-916, 1:2000 dilution) and PKA phosphorylated RyR2 (P2809 Ab, 1:10000 dilution). • 6. Aliquots can be stored at −80 C.
C. Calstabin Rebinding Assay
• 1. PKA-phosphorylated CSR (approximately 20 μg) was incubated with 250 nM Calstabin 2 in 100111 binding buffer (as described above) with or without compounds. • 2. […] Calstabin2 binding was detected with anti-FKBP (Jayaraman et al., J. Biol. Chem. 1992; 267:9474-77, 1:2000) primary antibody and appropriate secondary antibody.

[1] = Metabolic stability in rat microsomes (% remaining); format: in vitro ADME
Experimental: (§1) 0.1M Tris HCl buffer at pH 7.4 containing 5 mM EDTA.
(§2) To a 50 mL falcon tube containing 2.79 mL of dilution buffer were added 0.429 mL of NADPH-regenerating soln. A and 0.079 mL of NADPH-regenerating soln. B […]
(§3) […] A 50 mL falcon tube containing 3.32 mL of dilution buffer was prewarmed at 37° C. for 15 min. (at least 10 min.) 0.178 mL of microsome (24.6 mg/mL) were added to the prewarmed dilution buffer. The protein concentration of this microsome preparation was 1.25 mg/mL.
(§4) Sample (Test Compound)—Original and Intermediate Stock Solutions:
(§5) 100 μM intermediate solution of the test compound from the original stock solution were prepared using the dilution buffer. A 5 μM solution was prepared by diluting the 100 μM intermediate solution using dilution buffer.
(§6) (The experiments were conducted in 1.5 mL eppendorf micro centrifuge tubes) 0 minutes incubation. Procedure: a. Add 100 μL of prewarmed microsomes b. Add 50 μL of 5 μM solution of the test compound. c. Add 500 μL of cold stop solution (ice cold Methanol) d. Add 100 μL of NADPH cofactor solution to the eppendorf. a. Vortex mix the eppendorf. […]
(§7) b. Add 100 μL of NADPH cofactor solution to the eppendorf. c. Add 50 μL of 5 μM solution of the test compound. d. Add 100 μL of prewarmed microsomes e. Incubate the eppendorf at 37° C. 300 rpm for ‘t’ min. on a thermomixer. f. Remove the eppendorf from thermomixer g. Add 500 μL of cold stop solution (ice cold Methanol) h. Vortex mix the eppendorf.
(§8) Both the ‘0’ and ‘t’ minutes incubated samples were centrifuged at 15, 000 rcf at 4° C. for 15 min. 500 μL of the supernatant solution was removed and subject it to LC/MS analysis (SIM—Selected Ion Monitoring) […]
(§9) Results are expressed as % test compound remaining=(MS Area response of T min sample/MS Area response of ‘0’ min sample)*100. The MS area used is an average of duplicate injections.
(§10) Time points=0, 15, 30 and 60 min. for each test compound
(§11) 2 μM Imipramine—5 min. and 2 μM Imipramine—15 min. incubation was used as a positive control for the rat and mouse liver microsome stability experiments.

[2] = Metabolic stability in mouse microsomes (% remaining); format: in vitro ADME
Experimental: as §1, §2, §3, §4, §5, §6, §7, §8, §9, §10, §11

**Q.** For COc1ccc2c(c1)CN(Cc1ccc(C(=O)O)cc1)CCS2 [Compound 1, 4-((7-Methoxy-2,3-dihydrobenzo[f][1,4]thiazepin-4(5H)-yl)methyl)benzoic acid], which “binding of calstabin2 to PKA-phosphorylated RyR2” value (PKA-phosphorylated RyR2) is on record?
**A.** The value was “prevented the dissociation of calstabin2 from PKA-phosphorylated RyR2 and/or enhanced the (re)binding of calstabin2 to PKA-phosphorylated RyR”.

**Q.** What about the “% remaining” value ([1]; 15 min) of the same molecule?
**A.** The value was 54%.

**Q.** And the “% remaining” value ([1]; 30 min)?
**A.** Its value is 17%.

**Q.** And the “% remaining” value ([1]; 1 h)?
**A.** The value was 2%.

**Q.** And the “% remaining” value ([2]; 15 min)?
**A.** Its value is 99%.

**Q.** And the “% remaining” value ([2]; 30 min)?
**A.** The value was 98%.

**Q.** What about the “% remaining” value ([2]; 1 h) of the same molecule?
**A.** Its value is 82%.
